In one experiment the target is T1, Serotonin 5-HT1A (Homo sapiens, UniProt P08908).
T1 sequence (P08908 1-422): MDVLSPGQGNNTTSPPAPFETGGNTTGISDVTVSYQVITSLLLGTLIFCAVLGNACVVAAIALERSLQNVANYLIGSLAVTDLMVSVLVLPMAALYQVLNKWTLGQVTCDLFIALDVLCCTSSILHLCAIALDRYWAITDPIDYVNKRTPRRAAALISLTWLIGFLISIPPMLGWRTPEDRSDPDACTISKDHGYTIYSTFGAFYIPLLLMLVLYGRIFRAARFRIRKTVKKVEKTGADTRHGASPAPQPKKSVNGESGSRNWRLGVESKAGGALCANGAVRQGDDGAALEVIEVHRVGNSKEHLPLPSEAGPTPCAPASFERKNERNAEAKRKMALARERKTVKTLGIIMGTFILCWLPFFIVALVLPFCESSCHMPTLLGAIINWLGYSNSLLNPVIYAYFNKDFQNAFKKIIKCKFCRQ
The experiment in a line: Receptor binding, 5-HT1A.

For a further experiment, the target named is T2, Serotonin 5-HT2C (Homo sapiens, UniProt P28335).
T2 sequence (P28335 33-458): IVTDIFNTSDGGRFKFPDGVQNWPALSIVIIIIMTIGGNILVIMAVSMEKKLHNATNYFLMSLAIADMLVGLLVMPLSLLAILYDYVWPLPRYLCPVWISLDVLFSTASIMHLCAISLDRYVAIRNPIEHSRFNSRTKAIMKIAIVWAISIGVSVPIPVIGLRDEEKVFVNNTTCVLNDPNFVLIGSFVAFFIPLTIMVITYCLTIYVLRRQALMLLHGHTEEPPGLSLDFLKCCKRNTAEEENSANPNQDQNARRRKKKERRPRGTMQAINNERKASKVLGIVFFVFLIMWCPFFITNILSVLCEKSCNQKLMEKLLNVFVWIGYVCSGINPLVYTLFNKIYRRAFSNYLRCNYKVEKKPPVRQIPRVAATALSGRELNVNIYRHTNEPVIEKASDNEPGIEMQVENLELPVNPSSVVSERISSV
The experiment in a line: Receptor binding, 5-HT2C.

In another experiment the target is Dopamine D3 (Homo sapiens, UniProt P35462). The experiment in a line: Receptor binding, D3.
Chain of Dopamine D3 (P35462 whole entry): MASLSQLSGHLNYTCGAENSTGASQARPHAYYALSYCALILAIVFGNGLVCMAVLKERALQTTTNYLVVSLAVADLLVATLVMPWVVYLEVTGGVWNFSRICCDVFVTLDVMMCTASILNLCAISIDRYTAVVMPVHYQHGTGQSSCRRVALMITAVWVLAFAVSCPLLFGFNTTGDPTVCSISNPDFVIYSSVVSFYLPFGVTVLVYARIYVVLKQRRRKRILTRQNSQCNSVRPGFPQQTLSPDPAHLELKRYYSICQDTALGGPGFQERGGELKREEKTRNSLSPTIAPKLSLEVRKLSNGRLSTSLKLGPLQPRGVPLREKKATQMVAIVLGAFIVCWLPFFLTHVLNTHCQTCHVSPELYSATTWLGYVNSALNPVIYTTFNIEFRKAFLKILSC
The target in a further experiment is Dopamine D5 (Homo sapiens, UniProt P21918). The experiment in a line: Receptor binding, D5.
Chain of Dopamine D5 (P21918 whole entry): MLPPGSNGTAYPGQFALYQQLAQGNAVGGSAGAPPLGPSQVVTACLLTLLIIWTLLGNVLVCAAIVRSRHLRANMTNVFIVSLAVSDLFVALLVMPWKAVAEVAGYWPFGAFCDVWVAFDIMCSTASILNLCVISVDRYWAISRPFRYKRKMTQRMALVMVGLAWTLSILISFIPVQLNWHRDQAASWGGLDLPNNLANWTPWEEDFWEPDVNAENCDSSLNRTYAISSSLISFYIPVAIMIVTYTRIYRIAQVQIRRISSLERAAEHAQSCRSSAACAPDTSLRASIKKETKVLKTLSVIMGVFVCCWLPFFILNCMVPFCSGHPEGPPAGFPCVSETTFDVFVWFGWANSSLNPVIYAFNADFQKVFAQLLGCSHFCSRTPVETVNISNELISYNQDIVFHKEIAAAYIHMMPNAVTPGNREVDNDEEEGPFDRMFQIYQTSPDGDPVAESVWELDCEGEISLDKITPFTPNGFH
The next experiment deals with α-Adrenergic α1A (Homo sapiens, UniProt P35348). The experiment in a line: Receptor binding, α1A.
Chain of α-Adrenergic α1A (P35348 whole entry): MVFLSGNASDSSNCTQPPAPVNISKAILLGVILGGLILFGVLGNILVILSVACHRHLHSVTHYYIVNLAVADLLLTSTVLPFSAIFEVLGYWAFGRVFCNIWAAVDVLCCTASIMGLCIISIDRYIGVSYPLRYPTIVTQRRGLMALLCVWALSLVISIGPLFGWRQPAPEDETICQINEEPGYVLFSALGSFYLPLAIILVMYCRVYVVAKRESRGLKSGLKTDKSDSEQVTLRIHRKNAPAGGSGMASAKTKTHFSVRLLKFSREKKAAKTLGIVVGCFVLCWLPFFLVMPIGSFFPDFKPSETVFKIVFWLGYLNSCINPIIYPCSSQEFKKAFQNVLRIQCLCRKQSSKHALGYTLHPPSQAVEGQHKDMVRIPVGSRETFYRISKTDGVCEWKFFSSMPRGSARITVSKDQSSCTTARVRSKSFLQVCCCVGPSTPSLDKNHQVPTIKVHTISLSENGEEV
The target of another experiment is α-Adrenergic α1D (Homo sapiens, UniProt P25100). The experiment in a line: Receptor binding, α1D.
Chain of α-Adrenergic α1D (P25100 whole entry): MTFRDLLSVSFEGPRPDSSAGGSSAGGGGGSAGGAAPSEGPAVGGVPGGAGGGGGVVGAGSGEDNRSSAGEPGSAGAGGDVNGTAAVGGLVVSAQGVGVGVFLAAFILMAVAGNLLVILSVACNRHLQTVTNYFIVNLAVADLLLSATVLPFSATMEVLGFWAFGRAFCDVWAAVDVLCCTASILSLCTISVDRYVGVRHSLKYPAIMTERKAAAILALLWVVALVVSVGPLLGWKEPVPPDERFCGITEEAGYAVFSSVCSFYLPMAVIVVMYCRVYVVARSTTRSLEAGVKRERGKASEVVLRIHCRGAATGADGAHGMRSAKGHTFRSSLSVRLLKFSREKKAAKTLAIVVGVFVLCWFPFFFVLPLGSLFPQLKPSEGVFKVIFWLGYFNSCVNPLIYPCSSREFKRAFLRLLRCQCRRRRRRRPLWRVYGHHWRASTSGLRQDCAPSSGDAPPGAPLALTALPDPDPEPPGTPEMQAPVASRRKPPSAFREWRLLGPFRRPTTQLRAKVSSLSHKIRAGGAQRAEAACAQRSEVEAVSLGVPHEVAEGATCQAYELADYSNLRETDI
For another experiment, the target named is T3, α-Adrenergic α2B (Homo sapiens, UniProt P18089).
T3 sequence (P18089 1-450): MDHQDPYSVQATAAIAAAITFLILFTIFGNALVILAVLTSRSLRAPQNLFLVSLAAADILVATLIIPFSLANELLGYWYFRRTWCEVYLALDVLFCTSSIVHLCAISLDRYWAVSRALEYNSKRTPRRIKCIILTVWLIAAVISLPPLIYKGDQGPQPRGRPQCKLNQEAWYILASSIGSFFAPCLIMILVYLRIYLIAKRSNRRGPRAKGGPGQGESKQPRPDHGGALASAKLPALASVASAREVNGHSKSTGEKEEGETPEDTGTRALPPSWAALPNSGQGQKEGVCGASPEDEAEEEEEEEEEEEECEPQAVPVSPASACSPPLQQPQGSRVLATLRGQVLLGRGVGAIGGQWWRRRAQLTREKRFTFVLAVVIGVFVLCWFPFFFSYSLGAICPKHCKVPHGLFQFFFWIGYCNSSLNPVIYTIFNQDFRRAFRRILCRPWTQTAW
The experiment in a line: Receptor binding, α2B.

For a further experiment, the target named is T4, α-Adrenergic α2C (Homo sapiens, UniProt P18825).
T4 sequence (P18825 1-462): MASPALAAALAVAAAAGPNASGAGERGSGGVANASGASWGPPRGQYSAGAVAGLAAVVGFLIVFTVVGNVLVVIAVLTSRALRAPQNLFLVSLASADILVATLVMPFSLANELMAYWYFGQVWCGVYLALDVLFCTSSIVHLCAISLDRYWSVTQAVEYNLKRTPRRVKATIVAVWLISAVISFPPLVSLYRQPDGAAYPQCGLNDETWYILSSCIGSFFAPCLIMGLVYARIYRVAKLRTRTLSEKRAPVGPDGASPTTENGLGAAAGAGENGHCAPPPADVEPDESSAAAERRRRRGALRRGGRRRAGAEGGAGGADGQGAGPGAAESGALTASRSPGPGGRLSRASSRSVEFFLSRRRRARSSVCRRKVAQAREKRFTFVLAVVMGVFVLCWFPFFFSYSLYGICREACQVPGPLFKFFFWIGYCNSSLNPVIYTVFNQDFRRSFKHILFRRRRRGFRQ
The experiment in a line: Receptor binding, α2C.

A further experiment concerns the target Histamine H3 (Homo sapiens, UniProt Q9Y5N1). The experiment in a line: Receptor binding, H3.
The target in another experiment is Opioid μ (Homo sapiens, UniProt P35372). The experiment in a line: Receptor binding, opioid μ.
Chain of Opioid μ (P35372 whole entry): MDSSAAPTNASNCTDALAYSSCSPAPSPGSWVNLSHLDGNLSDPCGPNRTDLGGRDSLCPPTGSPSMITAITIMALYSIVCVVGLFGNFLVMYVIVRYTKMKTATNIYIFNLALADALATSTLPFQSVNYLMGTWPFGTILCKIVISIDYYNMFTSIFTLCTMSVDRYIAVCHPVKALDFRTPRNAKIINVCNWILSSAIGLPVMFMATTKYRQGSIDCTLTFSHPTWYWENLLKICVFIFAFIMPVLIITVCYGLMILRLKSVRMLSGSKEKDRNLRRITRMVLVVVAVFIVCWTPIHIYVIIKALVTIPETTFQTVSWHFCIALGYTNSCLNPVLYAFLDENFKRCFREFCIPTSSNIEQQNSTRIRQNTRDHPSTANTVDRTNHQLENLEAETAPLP
The target in another experiment is Muscarinic M5 (Homo sapiens, UniProt P08912). The experiment in a line: Receptor binding, M5.
Chain of Muscarinic M5 (P08912 whole entry): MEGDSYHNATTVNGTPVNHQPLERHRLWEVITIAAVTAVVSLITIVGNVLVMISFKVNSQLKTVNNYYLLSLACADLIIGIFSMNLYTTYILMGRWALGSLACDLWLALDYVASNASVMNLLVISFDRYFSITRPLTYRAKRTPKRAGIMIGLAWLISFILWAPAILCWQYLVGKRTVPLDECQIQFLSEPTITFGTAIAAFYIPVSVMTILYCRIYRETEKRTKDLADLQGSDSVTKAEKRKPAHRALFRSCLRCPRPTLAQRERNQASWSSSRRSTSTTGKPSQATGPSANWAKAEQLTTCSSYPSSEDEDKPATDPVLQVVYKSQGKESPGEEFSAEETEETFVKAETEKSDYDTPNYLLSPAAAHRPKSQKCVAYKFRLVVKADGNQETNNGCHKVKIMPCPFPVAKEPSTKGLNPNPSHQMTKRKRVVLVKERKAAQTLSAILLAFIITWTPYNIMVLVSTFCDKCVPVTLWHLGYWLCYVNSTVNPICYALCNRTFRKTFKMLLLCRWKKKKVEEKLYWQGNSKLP
A further experiment deals with Serotonin transporter (Homo sapiens, UniProt P31645). The experiment in a line: Receptor binding, serotonin transporter.
Chain of Serotonin transporter (P31645 whole entry): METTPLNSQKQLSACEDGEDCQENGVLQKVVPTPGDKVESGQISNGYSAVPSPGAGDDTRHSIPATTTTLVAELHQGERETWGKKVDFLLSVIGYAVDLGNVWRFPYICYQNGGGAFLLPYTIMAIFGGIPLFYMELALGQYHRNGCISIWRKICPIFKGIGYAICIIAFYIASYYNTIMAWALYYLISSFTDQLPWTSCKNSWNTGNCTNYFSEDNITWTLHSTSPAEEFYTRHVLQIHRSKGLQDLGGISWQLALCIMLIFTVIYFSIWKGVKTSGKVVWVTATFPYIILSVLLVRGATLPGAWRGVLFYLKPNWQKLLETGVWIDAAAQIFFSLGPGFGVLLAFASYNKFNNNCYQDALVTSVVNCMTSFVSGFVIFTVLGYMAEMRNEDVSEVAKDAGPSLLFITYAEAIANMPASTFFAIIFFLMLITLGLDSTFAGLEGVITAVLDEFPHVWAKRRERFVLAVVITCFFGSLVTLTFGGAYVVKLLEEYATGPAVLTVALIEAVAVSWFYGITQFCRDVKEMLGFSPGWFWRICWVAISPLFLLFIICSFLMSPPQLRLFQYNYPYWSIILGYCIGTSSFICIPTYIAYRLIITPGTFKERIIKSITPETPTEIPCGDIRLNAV
Experiment [1] relates to rats with a history of chronic meth self-administration. The experiment in a line: Reinstatement of meth seeking. In kind it is in vivo. The settings on record: 10 mg/kg i.p. just before reinstatement session (meth priming 1 mg/kg i.p. and cues), FIG. 3. On the procedure: DDD-024 was initially tested for effects on the reinstatement of meth seeking in a small pilot group of rats with a history of chronic meth self-administration. […] Rats received a vehicle (10% DMSO) or DDD-024 (10 mg/kg) injection (i.p.) just before each reinstatement session, which consisted of a meth priming injection (1 mg/kg, i.p.) and presentation of meth-associated cues (tone and light) upon each lever press.

The structures appear in SMILES notation. Bounds are passed on as bounds.

Chain of Histamine H3 (Q9Y5N1 whole entry): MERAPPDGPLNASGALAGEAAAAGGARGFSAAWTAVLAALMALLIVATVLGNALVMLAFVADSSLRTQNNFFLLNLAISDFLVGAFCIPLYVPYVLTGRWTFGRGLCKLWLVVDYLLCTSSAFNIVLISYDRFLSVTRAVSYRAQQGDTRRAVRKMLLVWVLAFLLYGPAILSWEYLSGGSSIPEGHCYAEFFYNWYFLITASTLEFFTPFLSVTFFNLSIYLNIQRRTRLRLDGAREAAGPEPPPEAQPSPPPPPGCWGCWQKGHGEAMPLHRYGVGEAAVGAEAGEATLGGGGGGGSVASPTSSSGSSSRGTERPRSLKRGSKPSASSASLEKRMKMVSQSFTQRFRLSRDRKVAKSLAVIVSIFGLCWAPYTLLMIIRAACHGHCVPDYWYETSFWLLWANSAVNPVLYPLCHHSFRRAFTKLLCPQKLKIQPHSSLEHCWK

Consider `CN1CCc2c(c3cccc4c3n2Cc2ccccc2O4)C1` [Compound 13b], for which the inhibition constant (Ki) at Serotonin 5-HT1A was 0.032 µM; at Serotonin 5-HT2C (5-HT2C) it was 0.247 µM; at Dopamine D3 it was above 10 µM; on Dopamine D5 it was above 10 µM; on α-Adrenergic α1A, 5.86 µM; on α-Adrenergic α1D, 5.03 µM. In addition, the inhibitory constant (Ki) on α-Adrenergic α2B is above 10 µM; on α-Adrenergic α2C, 0.507 µM; on Histamine H3, above 10 µM; at Opioid μ, above 10 µM; at Muscarinic M5, above 10 µM; on Serotonin transporter, 0.413 µM. Also, the “binding, in words” value is “binds strongly” at Serotonin 5-HT1A (summary of Table 1) and “moderate binding” on Serotonin 5-HT2C (HT2c, summary of Table 1). Besides, the “number of lever presses (meth seeking behavior)” value in experiment [1] is listed as “significantly reduced”.

What is called Ki is a measure of affinity in units of concentration, obtained from inhibition or displacement. A higher Ki goes with lower affinity.

The record behind these values is patent US9598414B2, “Substituted benzo[5,6]azepino[3,2,1-hi]pyrido[4,3-b]indoles and substituted benzo[6,7][1,4]oxazepino[2,3,4-hi]pyrido[4,3-b]indoles for treating CNS disorders” (Daya Drug Discoveries, Inc., priority 2013, dated 2017).
